The subject of the assay is murine neural precursor cells (neurosphere cultures). As to the kind of experiment: HTS of LOPAC library against secondary neurosphere cultures, MTT proliferation assay at 3 μM, day 7 (z score, P value). Format: cell-based, mouse.
Where [1] appears, read: LOPAC library screen, 3 μM, MTT, secondary neurosphere cultures, day 7.
The mark [2] stands for this setting: LOPAC primary screen, neurosphere MTT proliferation, 3 μM, day 7.
[3] abbreviates: yes/no: significantly inhibited neurosphere proliferation in primary screen.
Where [4] appears, read: yes = significantly inhibited neurosphere proliferation (P<0.01) in the primary screen.
Setting [5] is: LOPAC library screen, 3 μM, MTT, neurosphere cultures.
The mark [6] stands for this setting: LOPAC screen, neurosphere MTT proliferation, 3 μM, day 7.
Setting [7] is: yes/no: significantly inhibited neurosphere proliferation (P<0.01) in primary screen.
The mark [8] stands for this setting: primary LOPAC screen, 3 μM, MTT, neurosphere proliferation.
Setting [9] is: yes/no: significantly inhibited neurosphere proliferation in the primary screen.
Setting [10] is: yes/no: significantly inhibited neurosphere proliferation (P<0.01) in the primary screen.
Where [11] appears, read: LOPAC library screen at 3 μM, secondary neurosphere cultures, MTT.

The source of these data is patent US8058243B2, “Method for treating a brain cancer with ifenprodil” (HSC Research and Development Limited Partnership, priority 2006, dated 2011).

Counter-ions that a name gives are not always drawn. Like-named read-outs stand apart in the source and are kept apart here.

`CNCCC(Oc1ccc(C(F)(F)F)cc1)c1ccccc1` (centres unmarked) [Fluoxetine hydrochloride]: the Activity entry is recorded as “no”. Moreover, under setting [1], the “Z Score” value is −1.311. Further, under setting [2], the Z score is listed as −1.311.

For `NCC(CP(=O)(O)O)c1ccc(Cl)cc1` (centres unmarked) [Phaclofen], the “Z Score” value was 0.9701. In addition, under setting [2], the Z score came to 0.970. Besides, under setting [3], the Activity result is reported as “no”.

In the case of `Br.Br.N=C(N)NCCSSCCNC(=N)N` [Guanidinoethyl disulfide dihydrobromide], under “168 h, 3 µM”, the “Z Score” value is listed as −4.521 and the Z score was −4.521. In addition, the Activity result under setting [4] is reported as “yes”.

For the compound `NC(=O)N1c2ccccc2C=Cc2ccccc21` [Carbamazepine], the “Z Score” value under setting [5] is recorded as 1.114. Under setting [6], this compound displayed a Z score of 1.114. Further, under setting [7], the Activity result was “no”.

Regarding `Cl.O=c1[nH]oc2c1CCNC2` [THIP hydrochloride], the “Z Score” value is on record as 0.3613. Also, under setting [8], the Z score was 0.361. Further, the Activity entry under setting [9] is “no”.

As to (−)-MK-801 hydrogen maleate, the “Z Score” value was 1.133. Besides, the Z score under setting [2] amounted to 1.133. In addition, the Activity entry under setting [4] is reported as “no”.

Consider `O=C(O)C1CCNCC1` [Isonipecotic acid], for which, under “168 h, 3 µM”, the “Z Score” value is −0.4569 and the Z score was −0.457. Besides, the Activity result under setting [7] was “no”.

In the case of `CSC(=N)N.CSC(=N)N.O=S(=O)(O)O` [S-Methylisothiourea hemisulfate], the Activity entry is reported as “no”, the “Z Score” value is given as −0.2111 and the Z score is −0.211.

With `CN(C)CCCN1c2ccccc2Sc2ccc(Cl)cc21` [Chlorpromazine hydrochloride], the “Z Score” value under setting [5] was determined as 0.7506. The compound also had a Z score under setting [2] of 0.751. Under setting [10], the Activity result is recorded as “no”.

Consider `C1COC(NC(C2CC2)C2CC2)=N1` [Rilmenidine hemifumarate], for which, under setting [5], the “Z Score” value was found to be 0.5264. This compound had a Z score under setting [2] of 0.526. The Activity entry under setting [3] was “no”.

With `CN(C)CCC=C1c2ccccc2C=Cc2ccccc21` [Cyclobenzaprine hydrochloride], the “Z Score” value under setting [5] turned out to be 0.07186. The Z score under setting [6] worked out at 0.072. Under setting [7], the Activity result was “no”.

Take (−)-Tetramisole hydrochloride: the “Z Score” value under setting [1] is −1.866.

In the case of `C[N+](C)(C)CC(=O)O` [Betaine hydrochloride], the “Z Score” value under setting [1] was −2.668. Moreover, under setting [2], the Z score is −2.668. Besides, the Activity entry under setting [10] is on record as “yes”.

As for `CC(N)(Cc1ccc(O)cc1)C(=O)O` (racemic) [DL-alpha-Methyl-p-tyrosine], the “Z Score” value was −3.908. This compound returned a Z score under setting [2] of −3.908. Moreover, under setting [10], the Activity result was “yes”.

For `Cl.NC1CCN(c2cccc(Cl)n2)CC1` [SR 57227A], the “Z Score” value is given as −1.4. Also, the Z score under setting [2] was −1.400. In addition, the Activity result under setting [3] was “no”.

With `NC(=O)c1ccccc1C(=O)N[C@@H](CCC(=O)O)C(=O)O.[Na].[Na].[Na]` [Phthalamoyl-L-glutamic acid trisodium], where the note is “168 h, 3 µM”, the “Z Score” value was 0.2509 and the Z score came out at 0.251. Moreover, the Activity result under setting [3] is “no”.

Turning to `CCNC(=O)N1CCN(CCCC(c2ccc(F)cc2)c2ccc(F)cc2)CC1` [Amperozide hydrochloride], for the setting “168 h, 3 µM”, the “Z Score” value is given as −0.4126 and the Z score is −0.413. Besides, the Activity entry under setting [4] is “no”.

`CC(C)NP(=O)(NC(C)C)OP(=O)(NC(C)C)NC(C)C` [Tetraisopropyl pyrophosphoramide]: the “Z Score” value is recorded as −1.114. Moreover, the Z score under setting [8] is recorded as −1.114. Further, the Activity entry under setting [9] is given as “no”.

As to `Clc1ccccc1C(c1ccccc1)(c1ccccc1)n1ccnc1` [Clotrimazole], the “Z Score” value under setting [11] was −0.7158. The compound further came in with a Z score under setting [6] of −0.716. For the same compound, the Activity entry under setting [7] was “no”.

`[N-]=[N+]=Nc1ccc(C(=O)CSC[C@H](NC(=O)CC[C@H](N)C(=O)O)C(=O)NCC(=O)O)cc1` [S-(p-Azidophenacyl)glutathione]: under setting [5], the “Z Score” value is on record as −0.00276. Besides, the Z score under setting [8] is −0.003. Also, the Activity result under setting [9] was “no”.

Regarding `CC(C)COC(=O)OCN1C(=O)CN(CCN2CC(=O)N(COC(=O)OCC(C)C)C(=O)C2)CC1=O` [Sobuzoxane], the “Z Score” value under setting [1] was −9.6. Moreover, the Z score under setting [2] is −9.600. In addition, the Activity entry under setting [4] is recorded as “yes”.

For `Cl.NCCCCC(=O)O` [5-Aminovaleric acid hydrochloride], for the setting “168 h, 3 µM”, the “Z Score” value is −1.67 and the Z score is listed as −1.670. For the same compound, the Activity result under setting [3] is “no”.

For `O=P(O)(O)C(Cl)(Cl)P(=O)(O)O` [Clodronic acid], the “Z Score” value under setting [11] is −0.1842. The Z score under setting [6] is given as −0.184. The Activity result under setting [7] was “no”.

For `COc1cc(-c2ccc(=O)[nH]n2)ccc1OC(F)F` [Zardaverine], the “Z Score” value under setting [11] is on record as −0.3412. In addition, under setting [8], the Z score is on record as −0.341.

As for Quipazine dimaleate, the “Z Score” value is recorded as −1.444. In addition, the Z score under setting [2] is recorded as −1.444. For the same compound, the Activity entry under setting [3] is “no”.

Turning to `CC(C(=O)O)c1ccc(CC2CCCC2=O)cc1` (centres unmarked) [loxoprofen], under setting [11], the “Z Score” value is −0.8833. This compound also had a Z score under setting [2] of −0.883. Also, the Activity entry under setting [7] is recorded as “no”.

Regarding `Cl.Fc1ccc(C(OCCCc2c[nH]cn2)c2ccc(F)cc2)cc1`, the “Z Score” value is −0.01466.

For the compound `Clc1cccc(Cl)c1N=C1NCCN1` [Clonidine hydrochloride], under setting [5], the “Z Score” value is recorded as 1.041. Besides, the Z score under setting [6] turned out to be 1.041. Also, the Activity result under setting [7] is “no”.

With `Nc1nc2ccc(Cl)cc2c2nc(-c3ccco3)nn12` [CGS-15943], the “Z Score” value came to 0.1783 and the Z score is reported as 0.178.

Consider (−)-Perillic acid, for which the “Z Score” value is on record as −1.321.

Regarding `CC(=O)[C@H]1CC[C@H]2[C@@H]3CC=C4C[C@@H](OS(=O)(=O)[O-])CC[C@]4(C)[C@H]3CC[C@]12C.[Na+]` [Pregnenolone sulfate sodium], for the setting “LOPAC library screen at 3 μM, MTT, secondary neurosphere cultures, screened in singlets”, the “Z Score” value is 2.653. The compound further had a Z score under setting [2] of 2.653. Besides, the Activity result under setting [3] is on record as “no”.

Turning to `CCSC(N)=Nc1ccc(C(F)(F)F)cc1.Cl` [TFPI hydrochloride], the “Z Score” value under setting [11] is −1.156. Under setting [2], this compound registered a Z score of −1.156. Also, the Activity result under setting [3] is on record as “no”.

With `CNCCC=C1c2ccccc2CCc2ccccc21` [Nortriptyline hydrochloride], the “Z Score” value under setting [11] is reported as −1.095. Under setting [2], this compound had a Z score of −1.095. Further, the Activity entry under setting [4] is given as “no”.

`C[C@]12CC[C@@H](O)C[C@@H]1CC[C@@H]1[C@@H]2CC[C@]2(C)[C@@H](C(=O)CO)CC[C@@H]12`: the “Z Score” value is recorded as 0.4441. Further, the Z score under setting [2] was determined as 0.444. For the same compound, the Activity result under setting [3] is “no”.

As to `CC(CN1c2ccccc2Sc2ccccc21)N(C)C` (centres unmarked) [Promethazine hydrochloride], under setting [5], the “Z Score” value was 0.4746. The compound further had a Z score under setting [2] of 0.475. In addition, under setting [10], the Activity entry is on record as “no”.

As for `Br.CCCN(CCC)[C@@H]1CCc2cccc(O)c2C1` [R-(+)-8-Hydroxy-DPAT hydrobromide], the “Z Score” value under setting [11] was −0.6916. Under setting [2], the Z score was −0.692. Further, the Activity entry under setting [10] was “no”.

`CCCN(CCC)C1Cc2cc(OC)c(OC)cc2C1.O=C(O)/C=C\C(=O)O` [U-99194A maleate]: the “Z Score” value came to 1.255.

Take 5-Bromo-2$$-deoxyuridine: the “Z Score” value is reported as 2.58.

As for `O=C(OCCN1CCCCC1)c1c[nH]c2ccccc12` [SB 203186], the “Z Score” value worked out at 0.9365. Under setting [6], this compound registered a Z score of 0.937. Also, the Activity result under setting [7] is “no”.

Take `COc1ccc2c(c1)c(CC(=O)O)c(C)n2C(=O)c1ccccc1` [1-benzoyl-5-methoxy-2-methylindole-3-acetic acid]: the “Z Score” value under setting [11] is recorded as −0.955. For the same compound, the Z score under setting [8] is −0.955. The Activity entry under setting [9] is “no”.

As for `Nc1nc(Cl)nc2c1ncn2[C@@H]1O[C@H](COP(=O)([O-])OP(=O)([O-])OP(=O)([O-])[O-])[C@@H](O)[C@H]1O.[Na+].[Na+].[Na+].[Na+]` [2-Chloroadenosine triphosphate tetrasodium], under “168 h, 3 µM”, the “Z Score” value stood at 1.149 and the Z score is reported as 1.149. Besides, the Activity entry under setting [7] is given as “no”.

For the compound `CCOC(=O)c1cnc2c(cnn2CC)c1NN=C(C)C` [Etazolate hydrochloride], for the setting “168 h, 3 µM”, the “Z Score” value is given as −0.2465 and the Z score is recorded as −0.247. In addition, the Activity entry under setting [7] is given as “no”.

As for `O=C(O)c1cc2cc(F)ccc2[nH]1` [5-Fluoroindole-2-carboxylic acid], the “Z Score” value is listed as −0.007549 and the Z score was −0.008.

Consider `CC(C)c1ccc2c(c1)c(SC(C)(C)C)c(CC(C)(C)C(=O)O)n2Cc1ccc(Cl)cc1` [MK-886], for which the “Z Score” value was −1.549. Further, the Z score under setting [2] is given as −1.549. Besides, the Activity entry under setting [4] was “no”.

Take `CC(=O)N1CCN(c2ccc(OCC3COC(Cn4ccnc4)(c4ccc(Cl)cc4Cl)O3)cc2)CC1` (centres unmarked) [Ketoconazole]: the Activity entry is reported as “no”. For the same compound, under “168 h, 3 µM”, the “Z Score” value is 0.586 and the Z score was found to be 0.586.

`CNC[C@H](O)c1cccc(O)c1` [Phenylephrine hydrochloride]: the Activity result was “no”. Further, the “Z Score” value under setting [1] is on record as −1.257. Under setting [2], this compound gave a Z score of −1.257.

With `CN(C)CCCN1c2ccccc2CCc2ccccc21` [Imipramine hydrochloride], the Activity result is reported as “no”. In addition, under setting [11], the “Z Score” value was −0.5272. The Z score under setting [2] is recorded as −0.527.
